Blank lines part the entries; values can stand above or below the molecule they belong to.
Experiments:
[1] = tested on: Plasma; experiment: Drug level in human plasma treated with [14C}LY2452473 at 15 mg, po after 8 hrs administered as single dose by HPLC analysis; format: ADME, organism-based; settings: in vivo
[2] = tested on: Plasma; experiment: Drug level in plasma of human treated with [14C}LY2452473 at 15 mg, po administered as single dose by LC-MS/MS method; format: ADME, organism-based; settings: in vivo
[3] = Drug level in urine of human treated with [14C}LY2452473 at 15 mg, po administered as single dose by LC-MS/MS method; format: ADME, organism-based; settings: in vivo
[4] = tested on: Plasma; experiment: Drug level in human plasma treated with [14C}LY2452473 at 15 mg, po after 24 hrs administered as single dose by HPLC analysis; format: ADME, organism-based; settings: in vivo
[5] = tested on: Plasma; experiment: Drug level in human plasma treated with [14C}LY2452473 at 15 mg, po after 1 hr administered as single dose by HPLC analysis; format: ADME, organism-based; settings: in vivo
[6] = tested on: Plasma; experiment: Drug level in human plasma treated with [14C}LY2452473 at 15 mg, po after 48 hrs administered as single dose by HPLC analysis; format: ADME, organism-based; settings: in vivo
[7] = tested on: Plasma; experiment: Drug level in human plasma treated with [14C}LY2452473 at 15 mg, po after 4 hrs administered as single dose by HPLC analysis; format: ADME, organism-based; settings: in vivo
[8] = tested on: Plasma; experiment: Drug level in human plasma treated with [14C}LY2452473 at 15 mg, po after 4 hrs administered as single dose by HPLC analysis relative to total radioactivity; format: ADME, organism-based; settings: in vivo
[9] = tested on: Plasma; experiment: Drug level in human plasma treated with [14C}LY2452473 at 15 mg, po after 2 hrs administered as single dose by HPLC analysis; format: ADME, organism-based; settings: in vivo
[10] = Drug level in feces of human treated with [14C}LY2452473 at 15 mg, po administered as single dose by LC-MS/MS method; format: ADME, organism-based; settings: in vivo
[11] = Drug excretion in urine of human treated with [14C}LY2452473 at 15 mg, po administered as single dose by HPLC analysis; format: ADME, organism-based; settings: read-out: Drug excretion
[12] = Total drug excretion in human treated with [14C}LY2452473 at 15 mg, po administered as single dose by HPLC analysis; format: ADME, organism-based; settings: in vivo, read-out: Drug excretion
[13] = Drug recovery in human feces at 15 mg, po administered as single dose after 0 to 312 hrs by liquid scintillation counting method; format: ADME, organism-based; settings: in vivo
[14] = tested on: Plasma; experiment: Drug level in human plasma at 15 mg, po after 48 hrs administered as single dose by HPLC analysis; format: ADME, organism-based; settings: in vivo, pooled result: one value given for 5 cell lines, strains, targets or settings
[15] = Drug metabolism in human feces assessed as N-[(2S)-7-cyano-4-(2-pyridylmethyl)-2,3-dihydro-1H-cyclopenta[b]indol-2-yl]acetamide formation at 15 mg, po administered as single dose by LC-MS/MS method; format: ADME, organism-based; settings: in vivo
[16] = Drug metabolism in human urine assessed as isopropyl N-[(2S,3S)-7-cyano-3-hydroxy-4-(2-pyridylmethyl)-2,3-dihydro-1H-cyclopenta[b]indol-2-yl]carbamate formation at 15 mg, po administered as single dose by LC-MS/MS method; format: ADME, organism-based; settings: in vivo
[17] = tested on: Homo sapiens; experiment: AUC (0 to infinity) in human assessed as total radioactivity at 15 mg, po administered as single dose by liquid scintillation counting method; format: ADME, organism-based, Plasma; set-up: dose 15 mg, route oral, time infinity; settings: in vivo
[18] = tested on: Homo sapiens; experiment: Tlast in human assessed as total radioactivity at 15 mg, po administered as single dose by liquid scintillation counting method; format: ADME, organism-based; settings: in vivo
[19] = Drug metabolism in human urine assessed as [(1R)-2-hydroxy-1-methyl-ethyl]N-[(2S)-7-cyano-4-(2-pyridylmethyl)-2,3-dihydro-1H-cyclopenta[b]indol-2-yl]carbamate formation at 15 mg, po administered as single dose by LC-MS/MS method; format: ADME, organism-based; settings: in vivo
[20] = tested on: Plasma; experiment: Drug metabolism in human plasma assessed as LY2452473 formation at 15 mg, po administered as single dose by LC-MS/MS method; format: ADME, organism-based; settings: in vivo
[21] = Drug metabolism in human feces assessed as (2S)-2-amino-4-(2-pyridylmethyl)-2,3-dihydro-1H-cyclopenta[b]indole-7-carbonitrile formation at 15 mg, po administered as single dose by LC-MS/MS method; format: ADME, organism-based; settings: in vivo
[22] = tested on: Plasma; experiment: Drug metabolism in human plasma assessed as N-[(2S)-7-cyano-4-(2-pyridylmethyl)-2,3-dihydro-1H-cyclopenta[b]indol-2-yl]acetamide formation at 15 mg, po administered as single dose by LC-MS/MS method; format: ADME, organism-based; settings: in vivo
[23] = tested on: Plasma; experiment: Drug level in human plasma at 15 mg, po after 24 hrs administered as single dose by HPLC analysis; format: ADME, organism-based; settings: in vivo
[24] = Drug metabolism in human feces assessed as [(1R)-2-hydroxy-1-methyl-ethyl]N-[(2S)-7-cyano-4-(2-pyridylmethyl)-2,3-dihydro-1H-cyclopenta[b]indol-2-yl]carbamate formation at 15 mg, po administered as single dose by LC-MS/MS method; format: ADME, organism-based; settings: in vivo
[25] = tested on: Plasma; experiment: Drug metabolism in human plasma assessed as isopropyl N-[(2S,3S)-7-cyano-3-hydroxy-4-(2-pyridylmethyl)-2,3-dihydro-1H-cyclopenta[b]indol-2-yl]carbamate formation at 15 mg, po administered as single dose by LC-MS/MS method; format: ADME, organism-based; settings: in vivo
[26] = Drug metabolism in human urine assessed as (2S)-2-amino-4-(2-pyridylmethyl)-2,3-dihydro-1H-cyclopenta[b]indole-7-carbonitrile formation at 15 mg, po administered as single dose by LC-MS/MS method; format: ADME, organism-based; settings: in vivo
[27] = tested on: Plasma; experiment: Drug metabolism in human plasma assessed as [(1R)-2-hydroxy-1-methyl-ethyl]N-[(2S)-7-cyano-4-(2-pyridylmethyl)-2,3-dihydro-1H-cyclopenta[b]indol-2-yl]carbamate formation at 15 mg, po administered as single dose by LC-MS/MS method; format: ADME, organism-based; settings: in vivo
[28] = tested on: Plasma; experiment: Drug metabolism in human plasma assessed as (2S)-2-amino-4-(2-pyridylmethyl)-2,3-dihydro-1H-cyclopenta[b]indole-7-carbonitrile formation at 15 mg, po administered as single dose by LC-MS/MS method; format: ADME, organism-based; settings: in vivo
[29] = Drug metabolism in human urine assessed as N-[(2S)-7-cyano-4-(2-pyridylmethyl)-2,3-dihydro-1H-cyclopenta[b]indol-2-yl]acetamide formation at 15 mg, po administered as single dose by LC-MS/MS method; format: ADME, organism-based; settings: in vivo
[30] = tested on: Homo sapiens; experiment: Elimination half life in human assessed as total radioactivity at 15 mg, po administered as single dose by liquid scintillation counting method; format: ADME, organism-based; settings: in vivo
[31] = tested on: Homo sapiens; experiment: Drug recovery in human at 15 mg, po administered as single dose after 0 to 312 hrs by liquid scintillation counting method; format: ADME, organism-based; settings: in vivo
[32] = Drug metabolism in human feces assessed as isopropyl(2S)-7-cyano-3a,8b-dihydroxy-4-(pyridin-2-ylmethyl)-1,2,3,3a,4,8b-hexahydrocyclopenta[b]indol-2-ylcarbamate formation at 15 mg, po administered as single dose by LC-MS/MS method; format: ADME, organism-based; settings: in vivo
[33] = Drug metabolism in human feces assessed as isopropyl N-[(2S,3S)-7-cyano-3-hydroxy-4-(2-pyridylmethyl)-2,3-dihydro-1H-cyclopenta[b]indol-2-yl]carbamate formation at 15 mg, po administered as single dose by LC-MS/MS method; format: ADME, organism-based; settings: in vivo
[34] = Drug metabolism in human urine assessed as LY2452473 formation at 15 mg, po administered as single dose by LC-MS/MS method; format: ADME, organism-based; settings: in vivo
[35] = Drug metabolism in human feces assessed as LY2452473 formation at 15 mg, po administered as single dose by LC-MS/MS method; format: ADME, organism-based; settings: in vivo
[36] = tested on: Plasma; experiment: Drug metabolism in human plasma assessed as isopropyl(2S)-7-cyano-3a,8b-dihydroxy-4-(pyridin-2-ylmethyl)-1,2,3,3a,4,8b-hexahydrocyclopenta[b]indol-2-ylcarbamate formation at 15 mg, po administered as single dose by LC-MS/MS method; format: ADME, organism-based; settings: in vivo
[37] = Drug recovery in human urine at 15 mg, po administered as single dose after 0 to 312 hrs by liquid scintillation counting method; format: ADME, organism-based; settings: in vivo
[38] = tested on: Homo sapiens; experiment: Tmax in human assessed as total radioactivity at 15 mg, po administered as single dose by liquid scintillation counting method; format: ADME, organism-based; settings: in vivo
[39] = tested on: Homo sapiens; experiment: AUC (0 to time) in human assessed as total radioactivity at 15 mg, po administered as single dose by liquid scintillation counting method; format: ADME, organism-based, Plasma; settings: in vivo
[40] = Drug metabolism in human urine assessed as isopropyl(2S)-7-cyano-3a,8b-dihydroxy-4-(pyridin-2-ylmethyl)-1,2,3,3a,4,8b-hexahydrocyclopenta[b]indol-2-ylcarbamate formation at 15 mg, po administered as single dose by LC-MS/MS method; format: ADME, organism-based; settings: in vivo

SMILES: C[C@H](CO)OC(=O)N[C@H]1Cc2c(n(Cc3ccccn3)c3ccc(C#N)cc23)C1
Drug uptake [1]: 6.94% | Drug metabolism [2]: metabolite_detected | Drug metabolism [3]: metabolite_detected | Drug uptake [4]: 0% | Drug uptake [5]: 0% | Drug uptake [6]: 0% | Drug uptake [7]: 2.2% | Drug uptake [8]: 2.3% | Drug uptake [9]: 0.89% | Drug metabolism [10]: metabolite_detected

SMILES: N#Cc1ccc2c(c1)c1c(n2Cc2ccccn2)C[C@@H](N)C1
dose excreted [11]: 3.39% | Drug metabolism [2]: metabolite_detected | Drug metabolism [3]: metabolite_detected | dose excreted [12]: 3.39% | Drug metabolism [10]: metabolite_detected

Drug metabolism [2]: metabolite_detected | Drug metabolism [3]: metabolite_detected | Drug metabolism [10]: metabolite_detected
SMILES: CC(C)OC(=O)N[C@H]1CC2(O)c3cc(C#N)ccc3N(Cc3ccccn3)C2(O)C1 (some centres not stated)

SMILES: C[C@@H](CO)OC(=O)N[C@H]1Cc2c(n(Cc3ccccn3)c3ccc(C#N)cc23)C1
Drug uptake [1]: 0% | Drug uptake [4]: 0% | Drug uptake [5]: 0% | Drug uptake [6]: 0% | Drug uptake [7]: 0.97% | Drug uptake [9]: 0%

SMILES: CC(=O)N[C@H]1Cc2c(n(Cc3ccccn3)c3ccc(C#N)cc23)C1
Drug uptake [1]: 10.48% | Drug metabolism [2]: metabolite_detected | Drug metabolism [3]: metabolite_detected | Drug uptake [4]: 28.48% | Drug uptake [5]: 0% | Drug uptake [6]: 38.68% | Drug uptake [7]: 1.74% | Drug uptake [8]: 20.6% | Drug uptake [9]: 0% | Drug metabolism [10]: metabolite_detected

Drug uptake [1]: 36.62% | Drug metabolism [2]: metabolite_detected | Drug metabolism [3]: metabolite_detected | Drug uptake [4]: 37.11% | Drug uptake [5]: 21.9% | Drug uptake [6]: 30.05% | Drug uptake [7]: 24.24% | Drug uptake [8]: 34.7% | Drug uptake [9]: 22.58% | Drug metabolism [10]: metabolite_detected
SMILES: CC(C)OC(=O)N[C@H]1Cc2c(n(Cc3ccccn3)c3ccc(C#N)cc23)[C@H]1O

SMILES: CC(C)OC(=O)N[C@H]1Cc2c(n(Cc3ccccn3)c3ccc([14C]#N)cc23)C1
Drug recovery [13]: 46.6% | Drug uptake [14]: 96.4% | Drug metabolism [15]: metabolite_detected | Drug metabolism [16]: metabolite_detected | AUC [17]: 7750 ng·h/mL | Tlast [18]: 204 h | Drug metabolism [19]: metabolite_detected | Drug metabolism [20]: metabolite_detected | Drug metabolism [21]: metabolite_detected | Drug metabolism [22]: metabolite_detected | Drug uptake [23]: 94.41% | Drug metabolism [24]: metabolite_detected | Drug metabolism [25]: metabolite_detected | Drug metabolism [26]: metabolite_detected | Drug metabolism [27]: metabolite_detected | Drug metabolism [28]: metabolite_detected | Drug metabolism [29]: metabolite_detected | beta t1/2 [30]: 51 h | Drug recovery [31]: 94.5% | Drug metabolism [32]: metabolite_detected | Drug metabolism [33]: metabolite_detected | Drug metabolism [34]: metabolite_detected | Drug metabolism [35]: metabolite_detected | Drug metabolism [36]: metabolite_detected | Drug recovery [37]: 47.9% | Tmax [38]: 3 h | AUCt [39]: 7210 ng·h/mL | Drug metabolism [40]: metabolite_detected
